The target in the test is Nonstructural protein 3 (Zika virus, UniProt A0A024AXB9). As to the kind of experiment: Functional biochemical assay to identify treatments for viral infectious disease that targets Zika NS2B-NS3 protease. Utilizing a direct enzyme activity measurement method, reading the fluorescence intensity is used to characterize the relative potency of inhibitors as IC50. On the set-up: species or system PRVABC59.

Each structure is given as a SMILES string. Values joined by “and” are separate entries in the source; they are usually repeats but may differ in a detail not shown here. Identical values can stand only once. Where only a bound is given, the exact number is not on record here.

Sequence of Nonstructural protein 3 (A0A024AXB9 whole entry): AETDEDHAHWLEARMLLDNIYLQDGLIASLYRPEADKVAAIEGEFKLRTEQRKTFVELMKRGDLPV

In turn, `O=C1c2c(O)ccc([N+](=O)[O-])c2C(=O)c2c([N+](=O)[O-])ccc(O)c21` returned an IC50 of 57.1 µM.

Molecule `CNC(=O)C(=O)/C=C/c1ccccc1` gave an IC50 greater than 198 µM.

`O=C(/C=C/c1ccccc1)C(=O)N1CCOCC1` had an IC50 greater than 198 µM.

`O=C(Cn1sc2ccccc2c1=O)Nc1cccc(OCc2cn(CC(=O)Nc3ccccc3Oc3ccccc3)nn2)c1` showed a half-inhibitory concentration (IC50) of 2.06 µM. This lies in the single-digit micromolar range.

On to `O=C(C(=O)N1CCOCC1)c1c[nH]c2ccccc12`, for which the IC50 is greater than 99.5 µM.

`COc1ccc(S(=O)(=O)n2nc(OC(=O)c3cccc(-c4ccccc4Cl)c3)cc2N)cc1`: inhibition was half-maximal at 0.183 µM (IC50).

As to `CCCCCC(=O)N[C@H](C(=O)NCc1cccc(CN)c1)c1ccc(OCc2ccccc2)cc1`, the IC50 was 73.3 µM and 80.1 µM.

Consider `CCCCCC(=O)N[C@H](C(=O)NCc1ccc(NC(=N)N)cc1)c1ccc(OCc2ccccc2)cc1`, for which the IC50 is greater than 99.5 µM.

In turn, `NC(=O)c1cccc(NC(=O)[C@@H](NC(=O)c2ccc(Oc3ccc(C(F)(F)F)cc3)cc2)c2ccc(OCc3ccccc3)cc2)c1` had an IC50 greater than 99.5 µM.

`O=C(Nc1ccc2c(c1)B(O)OC2)c1cccc(OCc2c(Cl)cccc2Cl)c1` had an IC50 greater than 99.5 µM.

`COc1ccc(S(=O)(=O)Nc2ccc(C(=O)Nc3nc4ccccc4s3)cc2)cc1` registered an IC50 greater than 99.5 µM.

As to `CN(C)c1ccc(/C=C/C(=O)C(=O)N2CCOCC2)cc1`, half-maximal inhibition (IC50) was put at 83.2 µM.

Regarding `CCCCCC(=O)N[C@H](C(=O)N1CCC(CN)CC1)c1ccc(OCc2ccccc2)cc1`, the IC50 was greater than 99.5 µM.

Regarding `CC1(C)OB(c2ccc(Cl)cc2CNC2CCCCC2)OC1(C)C`, the IC50 is greater than 99.5 µM.

`O=C(/C=C/c1ccccc1)C(=O)N1CCN(CCc2ccccc2)CC1` gave an IC50 of 44.9 µM.

Molecule `O=C(/C=C/c1ccc(N2CCNCC2)cc1)C(=O)N1CCOCC1` registered an IC50 greater than 99.5 µM.

Take `COc1cc(COc2cccnc2F)nc(N2CCNCC2)n1`: the IC50 is greater than 99.5 µM.

The molecule `c1ccc2c(CN3CC[C@H](c4c[nH]c5ccccc45)C3)c[nH]c2c1` returned an IC50 greater than 99.5 µM.

Turning to `CNC(=O)c1cc(C#N)ccc1NS(=O)(=O)c1ccc(Oc2ccccc2Cl)cc1`, the IC50 was greater than 99.5 µM.

In the case of `NC(=O)c1cn(C[C@H]2CCCN2c2ccnc3ccccc23)nn1`, the IC50 was greater than 99.5 µM.

`COc1cc(Cc2ccnc(N3CCNCC3)c2)nc(N2CCNCC2)n1` displayed an IC50 greater than 99.5 µM.

Regarding `COc1cnccc1NC(=O)c1cccn(CC(C)C)c1=O`, the IC50 was greater than 99.5 µM.

`Nc1ccc(/C=C/C(=O)C(=O)N2CCN(CCc3ccccc3)CC2)cc1`: the IC50 is greater than 99.5 µM.

In turn, `NCc1ccc(C[C@H](NC(=O)c2ccccc2)C(=O)N2CCCCC2)cc1` gave an IC50 greater than 99.5 µM.

As to `CCCC[C@H](NC(C)=O)C(=O)N[C@H](C(=O)NCc1ccc(CN)cc1)c1ccccc1`, the IC50 is greater than 99.5 µM.

`CCn1ccnc(N2CC[C@H](c3cccnc3)C2)c1=O`: the IC50 was greater than 99.5 µM.

Consider `CCn1ccnc(N2CC[C@H](c3ccn[nH]3)C2)c1=O`, for which the IC50 was greater than 99.5 µM.

Molecule `CC(C)Nc1nc2ccc(C(=O)Nc3ccc4cn[nH]c4n3)cc2[nH]1` showed an IC50 greater than 99.5 µM.

With `N=C(N)NCCc1ccccc1B(O)O`, the IC50 is greater than 100 µM.

Consider `c1cc(CN2CCC(c3c[nH]c4ncccc34)CC2)c2[nH]ccc2c1`, for which the IC50 was greater than 99.5 µM.

For `O=C(O)c1cccc(NC(=O)c2cccc(OCc3c(Cl)cccc3Cl)c2)c1`, the IC50 is greater than 99.5 µM.

As for `N=C(N)NCCc1ccc(OC(=O)Nc2ccccc2)cc1`, the IC50 is greater than 100 µM.

Regarding `Cc1cc(NS(=O)(=O)c2ccc(Oc3ccccc3Cl)cc2)c(C(=O)NCC(F)(F)F)cc1F`, the IC50 was found to be 72.3 µM. This counts as double-digit micromolar.

In turn, `CCCC[C@H](NC(=O)OC(C)(C)C)C(=O)N[C@H](C(=O)NCc1ccc(C(N)=O)cc1)c1ccc(OCc2ccccc2)cc1` registered an IC50 greater than 99.5 µM.

For `CCn1ccnc(N2CC[C@@H](C(=O)NC)C2)c1=O`, the IC50 was greater than 99.5 µM.

Regarding `NCc1cccc(NC(=O)[C@@H](NC(=O)OCc2ccccc2)c2ccc(OCc3ccccc3)cc2)c1`, the IC50 worked out at 11.6 µM.

The molecule `O=C(c1cc(Cl)ccc1NS(=O)(=O)c1ccc(Oc2ccccc2Cl)cc1)N1CCCC1` came in with an IC50 greater than 99.5 µM.

The molecule `COC(=O)c1cncc(OCc2cc(OC)nc(N3CCNCC3)n2)c1` registered an IC50 greater than 99.5 µM.

As for `CCn1ccnc(N2CCC(c3c[nH]c4ccccc34)CC2)c1=O`, the IC50 is greater than 99.5 µM.

In turn, `CNC(=O)C(=O)/C=C/c1ccccc1C` returned an IC50 greater than 198 µM.

Consider `COC(=O)c1csc2cc(C(=O)N3CCCc4cc(CCN)ccc43)[nH]c12`, for which the IC50 is greater than 99.5 µM.

`COc1cc(Cc2c(-c3ccc(F)cc3)noc2C)nc(N2CCNCC2)n1` displayed an IC50 of 70.4 µM.

Regarding `CC(C)Nc1nc2ccc(C(=O)Nc3nnnn3-c3ccccn3)cc2[nH]1`, the IC50 was greater than 99.5 µM.

Molecule `CCn1ccnc(N2CC[C@@H](CC(N)=O)C2)c1=O` registered an IC50 greater than 99.5 µM.

The molecule `N=C(N)Nc1ccc(NC(=O)Oc2ccccc2)cc1` returned an IC50 greater than 100 µM.

Molecule `CC(C)(C)OC(=O)N[C@H](C(=O)Nc1cccc(CN)c1)c1ccc(OCc2ccccc2)cc1` had an IC50 greater than 99.5 µM.

Molecule `N=C(N)NCCc1ccc(NC(=O)C(=O)/C=C/c2ccc(N)cc2)cc1` showed an IC50 of 36.7 µM.

Turning to `COc1cc(COc2cncc3ccccc23)nc(N2CCNCC2)n1`, the IC50 was greater than 99.5 µM.

As to `CCn1ccnc(N2CC[C@H](c3cccc(C#N)c3)C2)c1=O`, the IC50 is greater than 99.5 µM.

On to `CN(C)Cc1ccc(C(=O)Nc2cc(Cl)cc(C(=O)NC(C)(C)CO)c2)[nH]1`, for which the IC50 was greater than 99.5 µM.

As to `CCn1ccnc(N2CC[C@H](c3c[nH]c4ccccc34)C2)c1=O`, the IC50 was greater than 99.5 µM.

In turn, `N=C(N)Nc1ccc(OC(=O)Nc2ccccc2)cc1` yielded an IC50 greater than 100 µM.

In turn, `O=C(NCC1CC1)c1cc(Cl)ccc1NS(=O)(=O)c1ccc(Oc2ccccc2Cl)cc1` registered an IC50 of 76.3 µM.

Regarding `O=C(/C=C/c1ccccc1CN1CCCCC1)C(=O)N1CCOCC1`, the IC50 was greater than 198 µM.

Turning to `NCc1ccc(/C=C/C(=O)C(=O)N2CCOCC2)cc1`, half-maximal inhibition (IC50) was put at 79.4 µM.

`CCn1ccnc(N2CC[C@H](c3ccc(OC)nc3)C2)c1=O` came in with an IC50 greater than 99.5 µM.

As for `COc1cc(Cc2ccc3[nH]ncc3c2)nc(N2CCNCC2)n1`, the IC50 is greater than 99.5 µM.

Molecule `CCn1ccnc(N2CC[C@H](C3CCOCC3)C2)c1=O` returned an IC50 greater than 99.5 µM.

Take `N=C(N)NCCc1ccc(NC(=O)Oc2ccccc2)cc1`: the IC50 was 87.4 µM and 21.5 µM.

On to `CNC(=O)c1cc(Cl)ccc1NS(=O)(=O)c1ccc(Oc2ccccc2Cl)cc1`, for which the IC50 is greater than 99.5 µM.

`COc1ccc2nc(C(F)(F)F)nc(N3CCN(c4ccc(N)nc4)CC3)c2c1` came in with an IC50 greater than 99.5 µM.

`CCn1ccnc(N2CC[C@H](c3ccncc3)C2)c1=O` showed an IC50 greater than 99.5 µM.

The molecule `c1ccc2c(CN3CCC[C@H](c4c[nH]c5ccccc45)C3)c[nH]c2c1` registered an IC50 greater than 99.5 µM.

Regarding `CCCC[C@H](NC(C)=O)C(=O)N[C@H](C(=O)Nc1ccc(C(N)=O)cc1)c1ccc(OCc2ccccc2)cc1`, the IC50 was greater than 99.5 µM.

Turning to `CC(C)(CO)NC(=O)c1cc(Cl)cc(NC(=O)c2cc(Cl)ccc2O)c1`, the IC50 was greater than 99.5 µM.

In turn, `C[C@@H](Cc1c[nH]c2ccccc12)N1CC[C@H](c2c[nH]c3ccccc23)C1` displayed an IC50 greater than 99.5 µM.

`CS(=O)(=O)c1ccc(N2CCNCC2)cc1NC(=O)c1cccc2ncccc12` yielded an IC50 greater than 99.5 µM.

Turning to `CCn1ccnc(N2CC[C@H](C#N)C2)c1=O`, the IC50 was greater than 99.5 µM.

As for `CCn1ccnc(N2CC[C@@H](CO)C2)c1=O`, the IC50 is greater than 99.5 µM.

The molecule `N[C@H]1CCN(c2cccc(CNC(=O)c3ccc4[nH]c(=O)[nH]c4c3F)n2)C1` came in with an IC50 greater than 99.5 µM.

Consider `c1ccc2c(CN3CCC(c4c[nH]c5cccnc45)CC3)c[nH]c2c1`, for which the concentration for half-maximal inhibition (IC50) came to 25.2 µM.

The molecule `CCn1ccnc(N2CC[C@@H](Cc3ccncc3)C2)c1=O` displayed a concentration for half-maximal inhibition (IC50) greater than 99.5 µM.

As for `N=C(N)NCCc1ccc(NC(=O)Cc2ccccc2)cc1`, the IC50 was greater than 198 µM.

`CCn1ccnc(N2CC[C@@H](CC#N)C2)c1=O` registered an IC50 greater than 99.5 µM.

On to `CCCC[C@H](NC(C)=O)C(=O)N[C@H](C(=O)NCc1ccc(CN)cc1)c1ccc(OCc2ccccc2)cc1`, for which the IC50 is 60.4 µM.

Take `O=C(Cn1ccc2cccnc21)N1CC[C@H](c2c[nH]c3ccccc23)C1`: the IC50 is greater than 99.5 µM.

The molecule `CC(C)(C)OC(=O)N[C@H](C(=O)Nc1ccc(CN)cc1)c1ccc(OCc2ccccc2)cc1` came in with an IC50 greater than 99.5 µM.

For the molecule `CN(C)Cc1cccc(C(=O)Nc2cc(Cl)cc(C(=O)NC(C)(C)CO)c2)c1`, the IC50 was greater than 99.5 µM.

In the case of `N=C(N)NCCc1cccc(B(O)O)c1`, the IC50 was greater than 100 µM.

Regarding `N=C(N)NCc1ccc(NC(=O)Oc2ccccc2)cc1`, the IC50 is greater than 100 µM.

In the case of `N=C(N)NCc1ccc(OC(=O)Nc2ccccc2)cc1`, the IC50 was greater than 100 µM.

Regarding `N=C(N)NCCc1ccc(NC(=O)C(=O)c2ccccc2)cc1`, the IC50 was greater than 198 µM.

With `Cc1nc([C@H]2CCCNC2)[nH]c1C(=O)Nc1ccccn1`, the IC50 is greater than 99.5 µM.

`c1ccc2c([C@H]3CCN(C[C@H]4CCOC4)C3)c[nH]c2c1` yielded an IC50 greater than 99.5 µM.

Turning to `c1ccc2c([C@H]3CCN(CC[C@H]4CCCO4)C3)c[nH]c2c1`, the IC50 was greater than 99.5 µM.

`CCn1ccnc(N2CC[C@H](C(C)(C)C)C2)c1=O` came in with an IC50 greater than 99.5 µM.

`CC1(C)OB(c2cccc(F)c2CNC2CCCC2)OC1(C)C` gave an IC50 greater than 99.5 µM.

Molecule `c1ccc2c([C@H]3CCN(CCC4CCOCC4)C3)c[nH]c2c1` had a concentration for half-maximal inhibition (IC50) greater than 99.5 µM.

The molecule `CC(C)Cn1cccc(C(=O)Nc2ccnc3ccccc23)c1=O` had an IC50 greater than 99.5 µM.

On to `NCc1ccc(NC(=O)[C@@H](NC(=O)OCc2ccccc2)c2ccc(OCc3ccccc3)cc2)cc1`, for which the IC50 was greater than 99.5 µM.

`c1ccc2c(CN3CCC(c4c[nH]c5ncccc45)CC3)c[nH]c2c1` yielded an IC50 of 33.9 µM.

`NS(=O)(=O)c1nc(C(=O)N2CCc3c(CO)cccc32)n2ccccc12` registered an IC50 greater than 99.5 µM.

The molecule `N=C(N)NCCc1ccc(NC(=O)c2ccccc2)cc1` came in with an IC50 greater than 198 µM.

In turn, `CCn1ccnc(N2CC[C@H](c3ccc(C#N)cc3)C2)c1=O` gave an IC50 greater than 99.5 µM.

In turn, `O=C(Nc1cccc(N2CCNCC2)c1)c1cccc2ncccc12` gave an IC50 greater than 99.5 µM.

`O=C(Nc1ccc(F)nc1)Oc1ccccc1` displayed an IC50 greater than 100 µM.

Molecule `COc1ccc(S(=O)(=O)n2nc(OC(=O)c3ccccc3)cc2N)cc1` showed an IC50 of 1.16 µM.

Source of the values: ChEMBL document CHEMBL5604062, “ASAP - ZIKV NS2B-NS3 protease fluorescence dose response” (2024).
